Results taken from US20240366594A1, “Small Molecule Inhibitors of Formation of Neutrophil-Derived Extracellular Traps (NETosis) and Uses Thereof” (The Brigham and Women's Hospital, Inc., priority 2021, published 2024).

How the values were obtained:
[1] = system: Murine neutrophils; assay: ROS production (luminol-HRP luminescence) in murine neutrophils; format: cell-based, mouse; details: ricolinostat 10 μM, 1 μM PMA 3 h; FIG. 1G right
Protocol: (§1) FIGS. 1A-H. Class I/II HDACs drive NET formation • (A and B) Freshly purified human (A) or mouse (B) neutrophils were treated with the indicated HDAC inhibitors at different doses (10, 2, 0.4, 0.08 μM), or with GSK484 (10 μM), for 1 h and then stimulated with 1 μM PMA for 3 h. Cells were fixed and stained with anti-citrullinated histone H3 (CitH3) antibody. NETosis induction was measured as the level of anti-CitH3 fluorescent signal. PMA alone represents 100% of NET induction. “-”: Cells treated with the highest dose of the indicated drug but not activated with PMA. • (C and D) Human neutrophils were treated, or not, with ricolinostat or GSK484 and then stimulated with 1 μM PMA. NETosis induction was measured as area of nuclei stained with DAPI. (C) 3D reconstruction of nuclei in each treatment (grid size 7.8 μm). (D) Quantification of DAPI signal from multiple fields of view (D) (n=9 for unstimulated, not pretreated with any drug [NT] and ricolinostat, n=7 for GSK484). • (E and F) Human neutrophils were treated as in (C-D), and immunoblot analysis of the indicated proteins was performed. Relative quantification of band intensity was analyzed with ImageJ software (F). White violins plots depict the quantification of histone H3 acetylation; red violin plots depict the quantification of histone H3 citrullination. […] ROS production was measured by luminescence with luminol-HRP. […]

[2] = system: Murine neutrophils; assay: Phagocytosis assay with fluorescent E. coli; format: cell-based, mouse; details: ricolinostat 10 μM, fluorescent E. coli 1 h; FIG. 1H
Protocol: as §1

O=C(CCCCCCNC(=O)c1cnc(N(c2ccccc2)c2ccccc2)nc1)NO [ricolinostat]
reactive oxygen species (ROS) production [1]: did not alter | bacterial phagocytosis (percentage of neutrophils positive for E. coli) [2]: excluded that ricolinostat administration altered
